Read-outs that look alike come from different tables or passages of the source.
Tests used:
[1] = molecular target: T1, full length human farnesoid X receptor (Homo sapiens, UniProt Q96RI1); experiment: farnesoid X receptor/ECREx7 co-transfection assay; format: cell-based; conditions: for EC50: CV-1 cells; for Emax: agonist efficacy relative to chenodeoxycholic acid (CDCA) maximum response
T1 construct: CMX-farnesoid X receptor (full length human farnesoid X receptor); expressed in transfected cells; host or cells: CV-1 African Green Monkey Kidney cells
T1 sequence (Q96RI1 1-472 isoform Q96RI1-2): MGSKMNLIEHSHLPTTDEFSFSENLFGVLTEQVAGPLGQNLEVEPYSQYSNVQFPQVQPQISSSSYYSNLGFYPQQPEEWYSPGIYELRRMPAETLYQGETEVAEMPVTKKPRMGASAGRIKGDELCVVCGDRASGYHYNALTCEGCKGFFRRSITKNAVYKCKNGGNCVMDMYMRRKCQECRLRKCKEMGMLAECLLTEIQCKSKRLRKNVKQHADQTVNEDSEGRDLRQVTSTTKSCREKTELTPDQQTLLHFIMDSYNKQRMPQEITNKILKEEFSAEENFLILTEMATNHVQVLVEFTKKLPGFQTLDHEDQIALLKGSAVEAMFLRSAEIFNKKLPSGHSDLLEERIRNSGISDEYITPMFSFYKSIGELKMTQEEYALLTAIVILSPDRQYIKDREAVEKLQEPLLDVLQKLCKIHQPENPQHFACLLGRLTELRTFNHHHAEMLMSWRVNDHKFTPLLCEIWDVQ
T1 sequence (P19793 1-462 partner): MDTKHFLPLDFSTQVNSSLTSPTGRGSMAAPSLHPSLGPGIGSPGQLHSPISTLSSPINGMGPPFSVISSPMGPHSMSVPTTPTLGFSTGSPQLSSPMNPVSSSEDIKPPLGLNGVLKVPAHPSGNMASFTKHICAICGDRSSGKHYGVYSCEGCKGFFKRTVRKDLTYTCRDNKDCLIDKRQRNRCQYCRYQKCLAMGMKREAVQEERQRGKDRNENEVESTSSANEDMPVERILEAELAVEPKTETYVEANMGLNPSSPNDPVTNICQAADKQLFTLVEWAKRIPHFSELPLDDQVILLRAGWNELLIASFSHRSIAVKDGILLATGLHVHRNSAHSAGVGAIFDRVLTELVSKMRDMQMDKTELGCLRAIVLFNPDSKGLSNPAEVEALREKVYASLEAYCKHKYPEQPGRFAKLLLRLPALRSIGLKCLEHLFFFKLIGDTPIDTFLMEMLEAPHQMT
Protocol: (§1) The basic co-transfection protocol for measuring the farnesoid X receptor activity is as follows. CV-1 African Green Monkey Kidney cells were plated 24 hours before transfection to achieve approximately 70-80 percent confluency. Cells were transfected with the following expression vectors, CMX-farnesoid X receptor (full length human farnesoid X receptor), CMX-7RXRα (full length human RXR), Luc12 (ECREx7-Tk-Luciferase) luciferase reporter gene construct. (See WO 00/76523, Venkateswaran et al., (2000) J. Biol. Chem. 275 14700-14707). A CMX-β-Galactosidase expression vector was used as a transfection control. The transfection reagent used was DOTAP (Boehringer Mannheim). Cells were incubated with the DOTAP/DNA mixture for 5 hours after which the cells were harvested and plated onto either 96 well or 384 well plates containing the appropriate concentration of test compound. The assay was allowed to continue for an additional 18-20 hours, after which the cells were lysed, with lysis buffer (1% triton X 100, 10% glycerol, 5 mM Dithiothreitol, 1 mM EGTA, 25 mM Tricine, pH 7.8) and the luciferase activity measured in the presence of Luciferase assay buffer (0.73 mM ATP, 22.3 mM Tricine, 0.11 mM EGTA, 0.55 mM Luciferin, 0.15 mM Coenzyme A, 0.5 mM HEPES, 10 mM Magnesium sulphate) on a standard luminomter plate reader (PE Biosystems, NorthStar Reader), using recommended operating instructions and conditions
(§2) Both the farnesoid X receptor/ECREx7 co-transfection assay (Example 9) and the TR-FRET assay (Example 8) can be used to establish the EC50/IC50 values for potency and percent activity or inhibition for efficacy. Efficacy defines the activity of a compound relative to a high control (chenodeoxycholic acid, CDCA) or a low control (DMSO/vehicle). The dose response curves are generated from an 8 point curve with concentrations differing by ½ LOG units. Each point represents the average of 4 wells of data from a 384 well plate. The curve for the data is generated by using the equation: Y=Bottom+(Top−Bottom)/(1+10^((Log EC50−X)*HillSlope))
The EC50/IC50 is therefore defined as the concentration at which an agonist or antagonist elicits a response that is half way between the Top (maximum) and Bottom (baseline) values. The EC50/IC50 values represented are the averages of at least 3 independent experiments. The determination of the relative efficacy or % control for an agonist is by comparison to the maximum response achieved by chenodeoxycholic acid that is measured individually in each dose response experiment. […]

farnesoid X receptor = molecular target: T2, farnesoid X receptor (Homo sapiens, UniProt Q96RI1); experiment: one or more of the in vitro assays described herein (TR-FRET assay and/or co-transfection assay); conditions: for Emax: agonist efficacy relative to CDCA, read-out: efficacy (first value, goes with EC50); for IC50: antagonist mode against CDCA, read-out: IC50 (apparent partial agonist activity); for EC50: read-out: EC50 (apparent partial agonist activity)
T2 sequence (Q96RI1 258-485): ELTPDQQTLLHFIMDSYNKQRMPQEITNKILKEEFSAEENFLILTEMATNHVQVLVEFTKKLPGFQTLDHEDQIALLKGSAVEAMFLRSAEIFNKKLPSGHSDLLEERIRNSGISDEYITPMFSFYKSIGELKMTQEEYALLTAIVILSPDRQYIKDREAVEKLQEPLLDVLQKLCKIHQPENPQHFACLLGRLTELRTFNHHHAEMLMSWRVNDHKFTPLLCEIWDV
Protocol: The TR-FRET assay was performed by incubating 8 nM of GST-farnesoid X receptor-LBD (comprising […] fused in frame to the farnesoid X receptor ligand binding domain, (amino acids 244-471 of the human farnesoid X receptor)), 8 nM of Europium-labeled anti-GST antibody (Wallac/PE Life Sciences Cat#AD0064), 16 nM biotin-SRC-1 peptide [5′-biotin-[…]-CONH2], 20 nM APC-SA [allophycocyanin conjugated streptavidin] (Wallac/PE Life Sciences, Cat# AD0059A) in FRET assay buffer (20 mM KH2PO4/K2HPO4 (pH 7.3), 150 mM NaCl, 2 mM CHAPS, 2 mM EDTA, 1 mM DTT) in the presence of the test compound(s) for 2-4 hours at room temperature in a 384 well assay plate. Data was collected using an LJL Analyst using the standard operating instructions and conditions with readings at emission wavelengths of 615 nm and 665 nm after a delay of 65 μs and an excitation wavelength of 330 nm.
as §1, §2
The EC50/IC50 is therefore defined as the concentration at which an agonist or antagonist elicits a response that is half way between the Top (maximum) and Bottom (baseline) values. The EC50/IC50 values represented are the averages of at least 3 independent experiments. The determination of the relative efficacy or % control for an agonist is by comparison to the maximum response achieved by chenodeoxycholic acid that is measured individually in each dose response experiment.
For the antagonist assay, CDCA is added to each well of a 384 well plate to elicit a response. The % inhibition for each antagonist is therefore a measurement of the inhibition of the activity of CDCA. In this example, 100% inhibition would indicate that the activity of CDCA has been reduced to baseline levels, defined as the activity of the assay in the presence of DMSO only.

[2] = read-out: agonist activity EC50

| EC50 [1, 2] | Emax [1] | Emax (farnesoid X receptor) | IC50 (farnesoid X receptor) | EC50 (farnesoid X receptor) | EC50 ([1]; read-out: agonist activity) | SMILES |
| --- | --- | --- | --- | --- | --- | --- |
| – | ≥ 100% | – | – | – | < 0.2 µM | CCNc1ccc(C#N)cc1/N=C1\S/C(=C\N2CCc3ccccc32)C(=O)N1Cc1ccccc1 [No. 5, 3-{[(2Z,5Z)-5-(2,3-dihydro-1H-indol-1-ylmethylidene)-4-oxo-3-(phenylmethyl)-1,3-thiazolidin-2-ylidene]amino}-4-(ethylamino)benzonitrile] |
| – | > 100% | – | – | – | < 0.1 µM | CCNc1ccc(C(C)=O)cc1/N=C1\S/C(=C\N2CCc3ccccc32)C(=O)N1Cc1ccccc1 [No. 6, (2Z,5Z)-2-{[5-acetyl-2-(ethylamino)phenyl]imino}-5-(2,3-dihydro-1H-indol-1-ylmethylidene)-3-(phenylmethyl)-1,3-thiazolidin-4-one] |
| ≤ 1 µM | 50 to 100% | – | – | – | – | CC(=O)c1cccc(/N=C2\S/C(=C\N3CCc4ccccc43)C(=O)N2Cc2ccco2)c1 [No. 7, (2Z,5Z)-2-[(3-acetylphenyl)imino]-5-(2,3-dihydro-1H-indol-1-ylmethylidene)-3-(furan-2-ylmethyl)-1,3-thiazolidin-4-one] |
| ≤ 1 µM | 50 to 100% | – | – | – | – | CC(=O)Nc1ccc(/N=C2\S/C(=C\N3CCc4ccccc43)C(=O)N2Cc2ccco2)cc1 [No. 8, N-(4-{[(2Z,5Z)-5-(2,3-dihydro-1H-indol-1-ylmethylidene)-3-(furan-2-ylmethyl)-4-oxo-1,3-thiazolidin-2-ylidene]amino}phenyl)acetamide] |

Further lines, the molecule ahead of its results:

| SMILES | EC50 [1, 2] | Emax [1] | Emax (farnesoid X receptor) | IC50 (farnesoid X receptor) | EC50 (farnesoid X receptor) | EC50 ([1]; read-out: agonist activity) |
| --- | --- | --- | --- | --- | --- | --- |
| CCNc1ccc(C(C)=O)cc1/N=C1\S/C(=C\N(C)c2ccccc2)C(=O)N1Cc1ccccc1 [No. 2, (2Z,5Z)-2-{[5-acetyl-2-(ethylamino)phenyl]imino}-5-{[methyl(phenyl)amino]methylidene)-3-(phenylmethyl)-1,3-thiazolidin-4-one] | ≤ 1 µM | 50 to 100% | – | – | – | – |
| CCNc1ccc(C(C)=O)cc1/N=C1\S/C(=C\N(C)Cc2ccccc2)C(=O)N1Cc1ccccc1 [No. 4, (2Z,5Z)-2-{[5-acetyl-2-(ethylamino)phenyl]imino}-5-{[methyl(phenylmethyl)amino]methylidene}-3-(phenylmethyl)-1,3-thiazolidin-4-one] | ≤ 1 µM | 50 to 100% | 40 to 50% | 0.3 to 0.5 µM | ~1 µM | – |
| CCNc1ccc(C#N)cc1/N=C1\S/C(=C\N(C)c2ccc(OC)cc2)C(=O)N1Cc1ccccc1 [No. 12, 4-(ethylamino)-3-{[(2Z,5Z)-5-({methyl[4-(methyloxy)phenyl]amino}methylidene)-4-oxo-3-(phenylmethyl)-1,3-thiazolidin-2-ylidene]amino} benzonitrile] | – | – | 40 to 50% | 0.3 to 0.5 µM | ~1 µM | – |
| CCNc1ccc(C(C)=O)cc1/N=C1\S/C(=C\N(C)c2cccc(OC)c2)C(=O)N1Cc1ccccc1 [No. 15, (2Z,5Z)-2-{[5-acetyl-2-(ethylamino)phenyl]imino}-5-({methyl[3-(methyloxy)phenyl]amino}methylidene)-3-(phenylmethyl)-1,3-thiazolidin-4-one] | – | ≥ 100% | – | – | – | < 0.2 µM |
| CCNc1ccc(C(C)=O)cc1/N=C1\S/C(=C\N(C)CCc2ccccc2)C(=O)N1Cc1ccccc1 [No. 19, (2Z,5Z)-2-{[5-acetyl-2-(ethylamino)phenyl]imino}-5-{[methyl(2-phenylethyl)amino]methylidene}-3-(phenylmethyl)-1,3-thiazolidin-4-one] | ≤ 1 µM | 50 to 100% | – | – | – | – |
| CCNc1ccc(C(C)=O)cc1/N=C1\S/C(=C\c2ccccc2)C(=O)N1Cc1ccccc1 [No. 23] | ≤ 1 µM | 50 to 100% | – | – | – | – |
| CCNc1ccc(C(C)=O)cc1/N=C1\S/C(=C\c2ccco2)C(=O)N1Cc1ccccc1 [No. 24, (2Z,5Z)-2-{[5-acetyl-2-(ethylamino)phenyl]imino}-5-(furan-2-ylmethylidene)-3-(phenylmethyl)-1,3-thiazolidin-4-one] | ≤ 1 µM | 50 to 100% | – | – | – | – |

— patent US7902237B2, “Heterocyclic compounds as pharmaceutical agents” (Exelixis, Inc., priority 2004, dated 2011)
